Measurements from patent publication US4451464A, “Trifluoromethyl substituted tricyclic quinazolinones useful as tranquilizers” (Sandoz, Inc., priority 1982, dated 1984).
pIC50: −log10 of the molar value.

Target: calf brain benzodiazepine receptors (calf brain cortex)
Assay: Flunitrazepam Receptor Binding Assay, FBA TEST No. 2 (inhibition of specific 3H-flunitrazepam binding)
Settings: 1.5 nM [3H]-Flunitrazepam, 15 min at 0° C., read-out: IC50 (concentration which inhibits specific binding of 3H-Flunitrazepam by 50%)
Procedure: Substantially similar results are obtainable in a Flunitrazepam Receptor Binding Assay as described by Chang et al., Eur. J. Pharmacol., 48, 213 (1978): when carried out with the non-substantive modifications evident from the following description (hereinafter FBA TEST No. 2): Fresh calf brain cortex is homogenized in a 19 fold volume of Tris-HCl buffer pH 7.4, using a Brinkman Polytron PT 20 and centrifuged at 50'000 g for […]. The pellets are frozen at -20° C. and resuspended in a 400 fold volume of Tris-buffer pH 7.4 before use for the binding assay. The assay mixtures consist of 1.8 ml of homogenate (corresponding to 4.5 mg of original tissue), 0.1 ml [^3 H]-Flunitrazepam (final concentration 1.5 nM), and 0.1 ml of buffer for determination of total binding or 0.1 ml of unlabelled Flunitrazepam (final concentration 1 μM) for determination of nonspecific binding, respectively. To assess the potency of various drugs in inhibiting specific binding, drugs are added (instead of buffer) to give 5 to 9 different concentrations between 1 nM and 10 μM, each in duplicate. After incubation for 15 min at 0° C., the assay mixtures are rapidly filtered through Whatman GF/B filters and washed twice with 5 ml of ice cold Tris-buffer. The filters are counted in Rialuma on a LKB Rach-Beta Liquid Scintillation Counter. […]

## CCCCN1CCn2c1nc1ccc(C(F)(F)F)cc1c2=O [Example 2, 1-n-butyl-7-trifluoromethyl-2,3-dihydro-imidazo[2,1-b]quinazolin-5(1H)-one]
  pIC50: 7.82
